Measured values published in patent US9611267B2, “Substituted tricyclic compounds as FGFR inhibitors” (Incyte Corporation, priority 2012, dated 2017).

What was measured:
Format in all cases: biochemical
[1] = target: FGFR3 (Homo sapiens (Human), UniProt P22607); experiment: FGFR enzymatic assay (FRET peptide phosphorylation), FGFR3; settings: FGFR3 enzyme (Millipore), ATP 140 μM
Outline: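 After 5-10 min pre-incubation of FGFR3 with serially diluted compound in pH 7.5 HEPES/MgCl2/EGTA/DTT buffer, the reaction proceeded 1 hr at 25° C. Phosphorylated peptide was detected by FRET, and IC50 was fitted with a variable-slope sigmoid.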

[2] = target: FGFR2 (Homo sapiens (Human), UniProt P21802); experiment: FGFR enzymatic assay (FRET peptide phosphorylation), FGFR2; settings: FGFR2 enzyme 0.01 nM, ATP 100 μM
Outline: (§1)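 IC50 values were obtained from variable-slope sigmoidal dose-response fitting of a FRET read-out of peptide phosphorylation. The buffer, described for FGFR3, was 50 mM HEPES pH 7.5 with MgCl2, EGTA, Tween-20 and DTT.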

[3] = target: FGFR1 (Homo sapiens (Human), UniProt P11362); experiment: FGFR enzymatic assay (FRET peptide phosphorylation), FGFR1; settings: FGFR1 enzyme 0.02 nM, ATP 210 μM
Outline: as §1

Measured: IC50

FGFR1, sequence (P11362 22-822): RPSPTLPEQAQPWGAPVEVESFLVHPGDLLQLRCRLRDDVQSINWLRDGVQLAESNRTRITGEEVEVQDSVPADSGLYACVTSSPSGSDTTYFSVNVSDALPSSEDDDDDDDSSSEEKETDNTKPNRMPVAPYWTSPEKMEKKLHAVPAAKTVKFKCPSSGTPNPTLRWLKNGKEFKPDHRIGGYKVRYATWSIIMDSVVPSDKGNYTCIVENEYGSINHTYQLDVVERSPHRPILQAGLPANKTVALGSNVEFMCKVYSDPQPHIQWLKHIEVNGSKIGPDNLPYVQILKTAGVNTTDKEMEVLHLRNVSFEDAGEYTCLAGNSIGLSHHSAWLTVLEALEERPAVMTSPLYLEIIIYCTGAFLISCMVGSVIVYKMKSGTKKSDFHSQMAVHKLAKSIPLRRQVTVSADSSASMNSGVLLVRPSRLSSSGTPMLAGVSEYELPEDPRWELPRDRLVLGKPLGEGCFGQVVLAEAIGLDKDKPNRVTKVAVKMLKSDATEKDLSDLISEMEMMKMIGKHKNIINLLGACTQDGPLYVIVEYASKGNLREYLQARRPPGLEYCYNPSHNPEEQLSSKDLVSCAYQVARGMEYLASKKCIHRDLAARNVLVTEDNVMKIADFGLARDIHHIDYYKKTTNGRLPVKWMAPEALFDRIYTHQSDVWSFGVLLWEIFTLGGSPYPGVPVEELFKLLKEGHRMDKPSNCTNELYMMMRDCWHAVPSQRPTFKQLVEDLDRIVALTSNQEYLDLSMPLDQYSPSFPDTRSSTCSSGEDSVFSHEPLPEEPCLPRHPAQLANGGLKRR
FGFR3, sequence (P22607 23-806): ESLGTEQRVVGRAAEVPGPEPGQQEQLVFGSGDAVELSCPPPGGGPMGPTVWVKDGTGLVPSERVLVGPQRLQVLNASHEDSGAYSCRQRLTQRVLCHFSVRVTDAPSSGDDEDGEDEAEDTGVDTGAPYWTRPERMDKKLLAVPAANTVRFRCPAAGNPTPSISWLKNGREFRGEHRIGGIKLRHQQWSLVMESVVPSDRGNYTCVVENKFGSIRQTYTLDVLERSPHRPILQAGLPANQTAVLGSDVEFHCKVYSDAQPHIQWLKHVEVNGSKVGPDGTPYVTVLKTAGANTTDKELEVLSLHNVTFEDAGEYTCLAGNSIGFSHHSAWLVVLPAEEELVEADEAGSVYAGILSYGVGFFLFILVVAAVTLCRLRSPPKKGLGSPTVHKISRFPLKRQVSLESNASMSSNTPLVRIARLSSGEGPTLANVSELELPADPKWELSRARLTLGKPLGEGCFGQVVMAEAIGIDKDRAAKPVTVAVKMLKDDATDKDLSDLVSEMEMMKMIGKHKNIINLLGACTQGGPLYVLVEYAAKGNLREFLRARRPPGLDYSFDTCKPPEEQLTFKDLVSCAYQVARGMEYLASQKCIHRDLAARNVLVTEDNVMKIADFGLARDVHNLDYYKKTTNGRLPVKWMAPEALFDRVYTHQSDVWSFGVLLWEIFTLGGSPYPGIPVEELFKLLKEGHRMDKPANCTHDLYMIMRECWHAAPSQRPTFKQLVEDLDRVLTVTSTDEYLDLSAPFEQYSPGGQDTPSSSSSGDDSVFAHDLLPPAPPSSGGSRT
FGFR2, sequence (P21802 22-821): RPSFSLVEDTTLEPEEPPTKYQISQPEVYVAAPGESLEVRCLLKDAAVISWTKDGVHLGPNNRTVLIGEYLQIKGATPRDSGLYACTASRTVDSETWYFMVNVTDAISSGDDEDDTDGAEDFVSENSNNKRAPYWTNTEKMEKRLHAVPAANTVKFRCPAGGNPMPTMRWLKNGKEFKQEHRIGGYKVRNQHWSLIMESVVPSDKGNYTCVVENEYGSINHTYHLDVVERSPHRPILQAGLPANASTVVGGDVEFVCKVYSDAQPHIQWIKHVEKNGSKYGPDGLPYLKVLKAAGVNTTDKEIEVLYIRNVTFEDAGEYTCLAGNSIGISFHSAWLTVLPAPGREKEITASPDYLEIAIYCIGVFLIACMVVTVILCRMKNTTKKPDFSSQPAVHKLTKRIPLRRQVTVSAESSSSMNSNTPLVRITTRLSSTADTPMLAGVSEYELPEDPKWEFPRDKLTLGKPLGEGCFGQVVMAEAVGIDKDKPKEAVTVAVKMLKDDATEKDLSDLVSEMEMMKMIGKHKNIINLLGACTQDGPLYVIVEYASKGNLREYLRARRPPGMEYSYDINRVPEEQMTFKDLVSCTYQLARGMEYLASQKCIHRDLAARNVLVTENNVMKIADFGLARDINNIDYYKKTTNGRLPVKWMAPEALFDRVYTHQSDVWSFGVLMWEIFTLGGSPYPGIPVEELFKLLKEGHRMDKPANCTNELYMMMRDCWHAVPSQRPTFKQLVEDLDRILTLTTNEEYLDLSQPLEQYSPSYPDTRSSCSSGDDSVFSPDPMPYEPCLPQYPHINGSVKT

CCNC(=O)c1cccc(N2C(=O)N(c3c(F)c(OC)cc(OC)c3F)Cc3cnc4[nH]ncc4c32)c1F [Example 201, 3-[3-(2,6-difluoro-3,5-dimethoxyphenyl)-2-oxo-2,3,4,7-tetrahydro-1H-pyrazolo[4′,3′:5,6]pyrido[4,3-d]pyrimidin-1-yl]-N-ethyl-2-fluorobenzamide]
< 100 nM: all assays above

COc1cc(CN2C(=O)N(c3c(F)c(OC)cc(OC)c3F)Cc3cnc4[nH]c(CN5CCOCC5)cc4c32)ccn1 [Example 202, 3-(2,6-difluoro-3,5-dimethoxyphenyl)-1-[(2-methoxypyridin-4-yl)methyl]-8-(morpholin-4-ylmethyl)-1,3,4,7-tetrahydro-2H-pyrrolo[3′,2′:5,6]pyrido[4,3-d]pyrimidin-2-one]
< 100 nM: all assays above

COc1cc(OC)c(F)c(N2Cc3cnc4[nH]c(CN5CCOCC5)cc4c3N(c3cnn(C)c3)C2=O)c1F [Example 203, 3-(2,6-difluoro-3,5-dimethoxyphenyl)-1-(1-methyl-1H-pyrazol-4-yl)-8-(morpholin-4-ylmethyl)-1,3,4,7-tetrahydro-2H-pyrrolo[3′,2′:5,6]pyrido[4,3-d]pyrimidin-2-one]
< 100 nM: all assays above

COc1cc(OC)c(F)c(N2Cc3cnc4[nH]c(CN5CCN(C)CC5)cc4c3N(c3cnn(C)c3)C2=O)c1F [Example 204, 3-(2,6-difluoro-3,5-dimethoxyphenyl)-8-[(4-methylpiperazin-1-yl)methyl]-1-(1-methyl-1H-pyrazol-4-yl)-1,3,4,7-tetrahydro-2H-pyrrolo[3′,2′:5,6]pyrido[4,3-d]pyrimidin-2-one]
< 100 nM: all assays above

CCN1CCN(Cc2cc3c4c(cnc3[nH]2)CN(c2c(F)c(OC)cc(OC)c2F)C(=O)N4c2cnn(C)c2)CC1 [Example 205, 3-(2,6-difluoro-3,5-dimethoxyphenyl)-8-[(4-ethylpiperazin-1-yl)methyl]-1-(1-methyl-1H-pyrazol-4-yl)-1,3,4,7-tetrahydro-2H-pyrrolo[3′,2′:5,6]pyrido[4,3-d]pyrimidin-2-one]
< 100 nM: all assays above

COc1cc(OC)c(F)c(N2Cc3cnc4[nH]c(CN5CC(O)C5)cc4c3C(C)(C)C2=O)c1F [Example 206, 7-(2,6-difluoro-3,5-dimethoxyphenyl)-2-[(3-hydroxyazetidin-1-yl)methyl]-9,9-dimethyl-3,6,7,9-tetrahydro-8H-pyrrolo[2,3-c]-2,7-naphthyridin-8-one]
< 100 nM: all assays above

COc1cc(OC)c(F)c(N2Cc3cnc4[nH]c(CN5CC(F)C5)cc4c3C(C)(C)C2=O)c1F [Example 207, 7-(2,6-difluoro-3,5-dimethoxyphenyl)-2-[(3-fluoroazetidin-1-yl)methyl]-9,9-dimethyl-3,6,7,9-tetrahydro-8H-pyrrolo[2,3-c]-2,7-naphthyridin-8-one]
< 100 nM: all assays above

COc1cc(OC)c(F)c(N2Cc3cnc4[nH]c(CN5CC(C#N)C5)cc4c3N(C)C2=O)c1F [Example 208, 1-{[3-(2,6-difluoro-3,5-dimethoxyphenyl)-1-methyl-2-oxo-2,3,4,7-tetrahydro-1H-pyrrolo[3′,2′:5,6]pyrido[4,3-d]pyrimidin-8-yl]methyl}azetidine-3-carbonitrile]
< 100 nM: all assays above

COc1cc(OC)c(F)c(N2Cc3cnc4[nH]c(CN5CC[C@@H](C#N)C5)cc4c3N(C)C2=O)c1F [Example 209, (3R)-1-{[3-(2,6-difluoro-3,5-dimethoxyphenyl)-1-methyl-2-oxo-2,3,4,7-tetrahydro-1H-pyrrolo[3′,2′:5,6]pyrido[4,3-d]pyrimidin-8-yl]methyl}pyrrolidine-3-carbonitrile]
< 100 nM: all assays above

COc1cc(OC)c(F)c(N2Cc3cnc4[nH]c(CCN5CC(F)C5)cc4c3N(CCO)C2=O)c1F [Example 210, 3-(2,6-difluoro-3,5-dimethoxyphenyl)-8-[2-(3-fluoroazetidin-1-yl)ethyl]-1-(2-hydroxyethyl)-1,3,4,7-tetrahydro-2H-pyrrolo[3′,2′:5,6]pyrido[4,3-d]pyrimidin-2-one]
< 100 nM: all assays above

COc1cc(OC)c(F)c(N2Cc3cnc4[nH]c(CN5CCOCC5)cc4c3N(c3cccc(F)c3F)C2=O)c1F [Example 211, 3-(2,6-difluoro-3,5-dimethoxyphenyl)-1-(2,3-difluorophenyl)-8-(morpholin-4-ylmethyl)-1,3,4,7-tetrahydro-2H-pyrrolo[3′,2′:5,6]pyrido[4,3-d]pyrimidin-2-one]
< 100 nM: all assays above

COc1cc(OC)c(F)c(N2Cc3cnc4[nH]c(CN5CCOCC5)cc4c3N(c3cccc(F)c3)C2=O)c1F [Example 212, 3-(2,6-difluoro-3,5-dimethoxyphenyl)-1-(3-fluorophenyl)-8-(morpholin-4-ylmethyl)-1,3,4,7-tetrahydro-2H-pyrrolo[3′,2′:5,6]pyrido[4,3-d]pyrimidin-2-one]
< 100 nM: all assays above

COc1cc(OC)c(F)c(N2Cc3cnc4[nH]c(CN5CCN(C)CC5)cc4c3N(c3cccc(F)c3)C2=O)c1F [Example 213, 3-(2,6-difluoro-3,5-dimethoxyphenyl)-1-(3-fluorophenyl)-8-[(4-methylpiperazin-1-yl)methyl]-1,3,4,7-tetrahydro-2H-pyrrolo[3′,2′:5,6]pyrido[4,3-d]pyrimidin-2-one]
< 100 nM: all assays above

COc1cc(OC)c(F)c(N2Cc3cnc4[nH]nc(-c5cnn(C)c5)c4c3N(C)C2=O)c1F [Example 215, 3-(2,6-difluoro-3,5-dimethoxyphenyl)-1-methyl-9-(1-methyl-1H-pyrazol-4-yl)-1,3,4,7-tetrahydro-2H-pyrazolo[4′,3′:5,6]pyrido[4,3-d]pyrimidin-2-one]
< 100 nM: all assays above

COc1cc(OC)c(F)c(N2Cc3cnc4[nH]ncc4c3N(Cc3cccc(F)n3)C2=O)c1F [Example 216, 3-(2,6-difluoro-3,5-dimethoxyphenyl)-1-[(6-fluoropyridin-2-yl)methyl]-1,3,4,7-tetrahydro-2H-pyrazolo[4′,3′:5,6]pyrido[4,3-d]pyrimidin-2-one]
< 100 nM: all assays above

COc1cc(OC)c(F)c(N2Cc3cnc4[nH]ncc4c3N(Cc3cccc(C)n3)C2=O)c1F [Example 217, 3-(2,6-difluoro-3,5-dimethoxyphenyl)-1-[(6-methylpyridin-2-yl)methyl]-1,3,4,7-tetrahydro-2H-pyrazolo[4′,3′:5,6]pyrido[4,3-d]pyrimidin-2-one]
< 100 nM: all assays above

COc1cc(OC)c(F)c(N2Cc3cnc4[nH]ncc4c3N(c3ncccc3F)C2=O)c1F [Example 218, 3-(2,6-Difluoro-3,5-dimethoxyphenyl)-1-(3-fluoropyridin-2-yl)-1,3,4,7-tetrahydro-2H-pyrazolo[4′,3′:5,6]pyrido[4,3-d]pyrimidin-2-one]
< 100 nM: all assays above

CCN1C(=O)N(c2c(F)c(OC)cc(OC)c2F)Cc2cnc3[nH]c(Cn4ccccc4=O)cc3c21 [Example 219, 3-(2,6-difluoro-3,5-dimethoxyphenyl)-1-ethyl-8-[(2-oxopyridin-1(2H)-yl)methyl]-1,3,4,7-tetrahydro-2H-pyrrolo[3′,2′:5,6]pyrido[4,3-d]pyrimidin-2-one]
< 100 nM: all assays above

CCN1C(=O)N(c2c(F)c(OC)cc(OC)c2F)Cc2cnc3[nH]c(COc4cccnc4)cc3c21 [Example 220, 3-(2,6-difluoro-3,5-dimethoxyphenyl)-1-ethyl-8-[(pyridin-3-yloxy)methyl]-1,3,4,7-tetrahydro-2H-pyrrolo[3′,2′:5,6]pyrido[4,3-d]pyrimidin-2-one]
< 100 nM: all assays above

COc1cc(OC)c(F)c(N2Cc3cnc4[nH]c(CN5CCOCC5)cc4c3N(CCO)C2=O)c1F [Example 221, 3-(2,6-difluoro-3,5-dimethoxyphenyl)-1-(2-hydroxyethyl)-8-(morpholin-4-ylmethyl)-1,3,4,7-tetrahydro-2H-pyrrolo[3′,2′:5,6]pyrido[4,3-d]pyrimidin-2-one]
< 100 nM: all assays above
